Reference: paper PMC6100512, “In-Vitro Activity of Silybin and Related Flavonolignans against Leishmania infantum and L. donovani” (Molecules : A Journal of Synthetic Chemistry and Natural …, 2018)

Key:
[1] = test system: Ld promastigotes; assay: Multiplication of Ld promastigotes in vitro (CellTiter-Glo, 24 h); format: cell-based, L. donovani; conditions: Leishmania donovani; for inhibition of growth at 120 µM: compared to untreated cultures, mean ± SD, read-out: Reduction (%) of multiplication, L. donovani promastigotes
Protocol: (§1) Growth was estimated by the addition of CellTiter-Glo® (Promega, Madison, WI, USA) (1:1) in 96-well microtiter white plates (Costar, Corning). After 10 min incubation (light protected, room temperature), luminescence was determined with FLUOstar Omega (BMG Labtech) reader. Sensitivity of Ld was similarly performed with promastigotes exposed to 120 μM. Control cultures (medium, untreated promastigotes, promastigotes treated with 0.2 μM AmB) were included. Experiment was carried out in triplicate and results expressed as % of inhibition of untreated control. Approximate IC50 values of the flavonolignans showing the highest inhibitory activity against Li mid-log-phase promastigotes were determined using dose-response curves. […] The compound with the highest activity, DhiS-A, was assayed against Ld promastigotes using the latter dilution series and the same culture conditions as above. For comparative purposes, mid-log promastigotes of Li and Ld were exposed to established anti-Leishmania agents: AmB (0.0078 μ[…] and 1.0 μM); […]

[2] = test system: intracellular amastigotes of Ld; assay: Activity against intracellular amastigotes ex vivo in mouse peritoneal Mφ; format: cell-based, L. donovani; conditions: 24 h
Protocol: Antiproliferative activity of flavonolignans against intracellular amastigotes was determined ex vivo using mouse peritoneal Mφ. Infections were carried out following the method and modifications described by us. Briefly, Mφ were seeded onto 8-well cell culture slides (SLP, Lifesciences Co., Pocheon, Korea) in a final volume of 400 µL (2.5 × 10^4 Mφ/well). Plates were incubated overnight at 37 °C under humidified 5% CO2/95% air atmosphere to facilitate adherence. Stationary-phase promastigotes of Ld and Li were centrifuged (370× g, 10 min) without break in a Ficoll (Sigma, Saint Louis, MO, USA) gradient (0%, 10% in Medium 199 and 30% in sterile phosphate-buffered saline). Metacyclic promastigotes, located in the 10–30% Ficoll interphase, were recovered, washed and opsonized in 15% normal mouse serum in 1:1 solution of RPMI and HBSS medium (Gibco, Life Technologies, Paisley, UK), 0.15 mM CaCl2 and 1 mM MgCl2 at 37 °C, 5% CO2 atmosphere for 30 min. Purified metacyclic promastigotes were added to the Mφ cultures using a ratio 4:1 (promastigotes:Mφ) for Li and 10:1 for Ld. Plates were incubated at 33 °C overnight as above. Noninternalized promastigotes were eliminated by repeated washing with fresh medium. Treatments (10 µM) were added to the cultures and kept for 24 h. […] Experiments were done in triplicate and the activity was expressed as % of inhibition compared to untreated cultures.

[3] = test system: Li promastigotes; assay: Drug combination with DhiS-A, Chou-Talalay method (CalcuSyn); format: cell-based, Leishmania infantum; conditions: for DRI of DhiS-A in combination with AmB / Dose Required of DhiS-A in combination with AmB: AmB:DhiS-A 0.01:15; for Dose Required of DhiS-A in combination with AmB / Dose Required of DhiS-A in combination with PMM / Dose Required of DhiS-A in combination with Sb^III: computer-simulated; for DRI of DhiS-A in combination with PMM / Dose Required of DhiS-A in combination with PMM: PMM:DhiS-A 5:1; for DRI of DhiS-A in combination with Sb^III / Dose Required of DhiS-A in combination with Sb^III: Sb^III:DhiS-A 1:1
Protocol: Fixed-combination ratios of drugs were based on the IC50 values determined for the individual molecules. Mid-log-phase promastigotes of Li were exposed for 24 h at constant ratios of 0.01:15 (AmB:DhiS-A), 1:1 (Sb^III:DhiS-A) and 5:1 (PMM:DhiS-A). Dose–response curves of the combinations were analyzed with the Chou–Talalay method, based on the theorem of combination index (CI)-isobologram and CalcuSyn software. This method allows the evaluation of the type of interaction between two molecules according to mass action law. Results can be used to determine quantitatively the synergy (CI < 1), additive effect (CI = 1) or antagonism (CI > 1) of combinations. Moreover, the program allows the calculation of the drug reduction index (DRI): dose reduction in drug combinations to reach a given inhibition compared to the activity of the individual drugs.

[4] = test system: BALB/c mouse peritoneal macrophages, Mφ; assay: Toxicity of flavonolignans for macrophages (CellTiter-Glo); format: cell-based; conditions: Peritoneal macrophage, 24 h, 28.125 to 900 µM, approximate
Protocol: Toxicity of flavonolignans for mammalian cells was determined using mouse peritoneal Mφ. Cells obtained were counted and seeded onto 96-well cultures plates (Costar, Corning) at a final concentration of 5 × 10^4 Mφ/well (100 µL/well). Plates were incubated overnight at 37 °C and humidified 5% CO2/95% air to facilitate adherence. Cells were cultured as above for 24 h with different concentrations of the flavonolignans (28.125 µM, 56.25 µM, 112.5 µM, 225 µM, 450 µM and 900 µM). After incubation, cell viability was determined with CellTiter-Glo® as previously described. Untreated and 300 µM AmB-treated control wells were included. Experiments were done in triplicate and approximate IC50 determined.

[5] = test system: intracellular amastigotes of Li BCN150; assay: Activity against intracellular amastigotes ex vivo in mouse peritoneal Mφ; format: cell-based, Leishmania infantum; conditions: 24 h
Protocol: Antiproliferative activity of flavonolignans against intracellular amastigotes was determined ex vivo using mouse peritoneal Mφ. Infections were carried out following the method and modifications described by us. Briefly, Mφ were seeded onto 8-well cell culture slides (SLP, Lifesciences Co., Pocheon, Korea) in a final volume of 400 µL (2.5 × 10^4 Mφ/well). Plates were incubated overnight at 37 °C under humidified 5% CO2/95% air atmosphere to facilitate adherence. Stationary-phase promastigotes of Ld and Li were centrifuged (370× g, 10 min) without break in a Ficoll (Sigma, Saint Louis, MO, USA) gradient (0%, 10% in Medium 199 and 30% in sterile phosphate-buffered saline). Metacyclic promastigotes, located in the 10–30% Ficoll interphase, were recovered, washed and opsonized in 15% normal mouse serum in 1:1 solution of RPMI and HBSS medium (Gibco, Life Technologies, Paisley, UK), 0.15 mM CaCl2 and 1 mM MgCl2 at 37 °C, 5% CO2 atmosphere for 30 min. Purified metacyclic promastigotes were added to the Mφ cultures using a ratio 4:1 (promastigotes:Mφ) for Li and 10:1 for Ld. Plates were incubated at 33 °C overnight as above. Noninternalized promastigotes were eliminated by repeated washing with fresh medium. Treatments (10 µM) were added to the cultures and kept for 24 h. Slides were methanol-fixed and stained with May–Grünwald Giemsa (Merck) to determine the % of infection and the number of amastigotes/100 Mφ under microscope. Cultures untreated, treated with 0.05% DMSO and treated with 0.1 µM AmB were included as controls. Experiments were done in triplicate and the activity was expressed as % of inhibition compared to untreated cultures.

[6] = test system: Li UCM9 promastigotes; assay: Multiplication of Li promastigotes in vitro (CellTiter-Glo, 24 h); format: cell-based, Leishmania infantum; conditions: for inhibition of growth at 120 µM: compared to untreated cultures, mean ± SD, read-out: Reduction (%) of multiplication, L infantum promastigotes
Protocol: as §1

[7] = test system: amastigotes of L. major; set-up: method as in PMID 29716183; conditions: cited from earlier work
[8] = test system: L. major promastigotes; set-up: method as in PMID 29716183; conditions: 12.5 µM; cited from earlier work

COc1cc([C@H]2Oc3ccc(-c4oc5cc(O)cc(O)c5c(=O)c4O)cc3O[C@@H]2CO)ccc1O [Dehydroisosilybin A, dehydroisosilybin A]
inhibition of growth at 120 µM [1]: 87.6 ± 2.82% | IC50 ([1]; approximate, dose-response curve): ~90.2 µM | Intracellular burdens (amastigotes/100 Mφ) after treatment, Ld ([2]; 10 µM): did not show any reduction | Mφ infection (%), Ld ([2]; treated with 10 µM, nontreated 69.67 ± 8.50%): 67.0 ± 6.08% | DRI of DhiS-A in combination with AmB ([3]; ED10): 0.88 | Dose Required of DhiS-A in combination with AmB ([3]; ED10): 34.79 µM | DRI of DhiS-A in combination with AmB ([3]; ED25): 1.13 | Dose Required of DhiS-A in combination with AmB ([3]; ED25): 44.61 µM | DRI of DhiS-A in combination with AmB ([3]; ED50): 1.47 | Dose Required of DhiS-A in combination with AmB ([3]; ED50): 57.21 µM | DRI of DhiS-A in combination with PMM ([3]; ED50): 0.51 | Dose Required of DhiS-A in combination with PMM ([3]; ED50): 164 µM | DRI of DhiS-A in combination with Sb^III ([3]; ED50): 1.50 | Dose Required of DhiS-A in combination with Sb^III ([3]; ED50): 56 µM | DRI of DhiS-A in combination with AmB ([3]; ED75): 1.90 | Dose Required of DhiS-A in combination with AmB ([3]; ED75): 73.36 µM | DRI of DhiS-A in combination with PMM ([3]; ED75): 0.60 | Dose Required of DhiS-A in combination with PMM ([3]; ED75): 229 µM | DRI of DhiS-A in combination with Sb^III ([3]; ED75): 0.99 | Dose Required of DhiS-A in combination with Sb^III ([3]; ED75): 141.12 µM | DRI of DhiS-A in combination with AmB ([3]; ED90): 2.91 | Dose Required of DhiS-A in combination with AmB ([3]; ED90): 94.08 µM | DRI of DhiS-A in combination with PMM ([3]; ED90): 0.72 | Dose Required of DhiS-A in combination with PMM ([3]; ED90): 318 µM | DRI of DhiS-A in combination with Sb^III ([3]; ED90): 0.65 | Dose Required of DhiS-A in combination with Sb^III ([3]; ED90): 355.63 µM | DRI of DhiS-A in combination with AmB ([3]; ED95): 4.28 | Dose Required of DhiS-A in combination with AmB ([3]; ED95): 111.42 µM | DRI of DhiS-A in combination with PMM ([3]; ED95): 0.81 | Dose Required of DhiS-A in combination with PMM ([3]; ED95): 399 µM | DRI of DhiS-A in combination with Sb^III ([3]; ED95): 0.49 | Dose Required of DhiS-A in combination with Sb^III ([3]; ED95): 666.84 µM | IC50 [4]: ~30 µM | Antileishmanial activity on intracellular amastigotes (in words) ([5]; 10 µM): ineffective against amastigotes | Intracellular burdens (amastigotes/100 Mφ) after treatment, Li ([5]; 10 µM): did not show any reduction | Antileishmanial activity on intracellular amastigotes (in words) ([5]; 10 µM, listed as DhiS-A): did not show any antiproliferative activity | Mφ infection (%), Li ([5]; treated with 10 µM, nontreated 50.67 ± 4.62%): 45.67 ± 7.51% | inhibition of growth at 120 µM ([6]; Leishmania infantum, 24 h): 38.3 ± 4.96% | IC50 ([6]; Leishmania infantum, approximate, dose-response curve, 24 h): ~90.2 µM | Emax ([6]; Leishmania infantum, exploratory screening, 0.94 µM up to 120 µM, read-out: Maximal effect (inhibition of growth of control cultures) on Li promastigotes): < 50% | Inhibition of Li promastigote multiplication reached in dose-response curve ([6]; maximal concentration used 480/600 µM): complete inhibition

COc1cc(C2Oc3cc([C@H]4Oc5cc(O)cc(O)c5C(=O)[C@@H]4O)ccc3OC2CO)ccc1O (stereo partly drawn) [Silybin AB, silybin AB]
Inhibition of the multiplication of amastigotes of L. major [7]: 53% | inhibition of growth at 120 µM [1]: 37 ± 3.91% | Antileishmanial activity on intracellular amastigotes (in words) ([5]; 10 µM): no antileishmanial activity was found | inhibition of growth at 120 µM ([6]; Leishmania infantum, 24 h): 5.4 ± 2.02% | Inhibition on Li promastigotes (in words) ([6]; exploratory screening, 0.94 µM up to 120 µM): neither silymarin nor the main component, silybin, elicited any inhibition

antimoniate of N-methyl glucamine [Sb^V, reference compound]
Reduction of the multiplication of L. major promastigotes [8]: ca. 70% | Sensitivity of Li promastigotes (in words) ([6]; dose-response 3.75-480 µM): insensitive
